What was measured:
PKCα = PKCα (Homo sapiens, UniProt P17252); assay: Activation of purified PKC isozymes, radiometric: PKC-α; assay type: biochemical
Description: To measure PKC activity, 10 μg of protein from either cytosol or membrane was incubated for 15 min at 37° C. in the presence of 10 μM histones, 4.89 mM CaCl2, 1.2 μg/μl phosphatidyl-L-serine, 0.18 μg/μl 1,2-dioctanoyl-sn-glycerol, 10 mM MgCl2, 20 mM HEPES (pH 7.4), 0.8 mM EDTA, 4 mM EGTA, 4% glycerol, 8 μg/ml aprotinin, 8 μg/ml leupeptin, 2 mM benzamidine, and 0.5 μCi of [γ-^32P]ATP. [^32P]Phosphoprotein formation was measured by adsorption onto phosphocellulose as described previously. See Nelson et al. (2009) J Biol Chem 284, 34514-34521. For measurements of activation by RA, PKC activity was measured in the absence of diacylglycerol (DAG) and phosphatidylserine, as described by Nelson et al. (2009) J Biol Chem 284, 34514-34521. PKC-δ and PKC-ε were measured in the absence of added EGTA and CaCl^2, as described by Kanno et al. (2006) J Lipid Res 47, 1146-1156. The enzyme was provided as a purified isozyme for in vitro experiments.
To measure PKC, 10 μl of cell homogenate or purified PKC isoform was incubated for 15 min at 37° C. in the presence of 10 μM histones, 4.89 mM CaCl2, 1.2 μg/μl phosphatidyl-L-serine, 0.18 μg/μl 1,2-dioctanoyl-sn-glycerol, 10 mM MgCl2, 20 mM HEPES (pH 7.4), 0.8 mM EDTA, 4 mM EGTA, 4% glycerol, 8 μg/ml aprotinin, 8 μg/ml leupeptin, and 2 mM benzamidine. [γ32P]ATP (0.5 μCi) was added and 32P-phosphoprotein formation was measured by adsorption onto phosphocellulose as described previously. See Nelson et al., J. Neurochemistry, 1995, 65: 2350-2357.
PKC activity of each compound was measured in the absence of diacylglycerol and phosphatidylserine and PKC-δ and PKC-ε were measured in the absence of added EGTA and CaCl2, as described by Kanno et al., J. Lipid Res., 2006, 47: 1146-1156. Low concentrations of Ca^2+ were needed because high Ca^2+ can interact with the PKC phosphatidylserine binding site and prevents activation. […] To determine their PKC isoform specificity, the compounds were pre-incubated with purified isoforms of PKC for five minutes and the PKC activity was measured radiometrically.
The activation and PKC isozyme specificity of DCPLA-ethyl ester was measured following the procedures in Example 1(B) and (C), except that 9 ng of the purified isozyme was used and it was pre-incubated for 5 minutes at room temperature (FIG. 3). PKC-ε activation by DCPLA-tert-butyl ester and DCPLA-retinyl ester was measured in the same manner as DCPLA-ethyl ester (FIG. 3).

[1] = system: primary human cortical neurons; assay: Long-term culture of human primary cortical neurons (40 days); assay type: cell-based
Description: More specifically, human primary cortical neurons were grown in Neuronal Medium (ScienCell Cat No #1521) containing neuronal growth supplement (NGS) (Sciencell Cat No #1562).
Cells were plated on poly-l-lysine (0.001%) coated plates at a density of >10000 cells/cm2. Half of the media was replaced by new media every 3 days. DCPLA-ME or Bryostatin was dissolved in 100% ethanol and added at final concentration (100 nM for DCPLA-ME, 0.27 nM for Bryostatin). Fresh DCPLA-ME (100 nM) or Bryostatin (0.27 nM) was added every 3 days during media change. The experiments were continued for 40 days.
Human primary neurons (ScienCell Research Laboratories, USA) were thawed and plated on poly-L-lysine coated plates at a density of 10,000 cells per cm^2 and were maintained in neuronal medium (DMEM+high glucose+neuronal growth supplement, ScienCell Research Laboratories, USA) following the recommended method. Primary human neurons were then treated with either DCPLA-ME (100 nM) or bryostatin 1 (0.27 nM) for 40 days. Fresh drug was added every third day with 50% media change.

| effect on PKC-α (in words) (PKCα) | SMILES | fractal dimension (neuritic branching) ([1]; 100 nM) | number of colocalized puncta of synaptophysin and PSD-95 ([1]; 100 nM) | number of synapses (in words) ([1]; 100 nM) | neurite-positive cells/field ([1]; 100 nM, 40 days) | expression levels of PKCε, PSD-95 and synaptophysin (in words) ([1]; compared to control or bryostatin 1-treated cells, 40 days) |
| --- | --- | --- | --- | --- | --- | --- |
| did not have a major effect | CCCCCC1CC1CC1CC1CCCCCCCC(=O)OC (stereo not shown) [DCPLA-ME, methyl 8-(2-((2-pentylcyclopropyl)methyl)cyclopropyl)octanoate] | 1.40±0.03 | 230 % of control | significantly increased | 360±45 cells/field | significantly higher |
| not activated | CC1=C(/C=C/C(C)=C/C=C/C(C)=C/C(=O)O)C(C)(C)CCC1 [RA, All-trans retinoic acid] | – | – | – | – | – |

From US10821079B2, “PKC activators and combinations thereof” (Cognitive Research Enterprises, Inc., priority 2011, dated 2020)
